Reference: patent US11083717B2, “Compositions and methods for drug sensitization of parasites” (The Texas A&M University System, priority 2015, dated 2021)
Values after ≈ are worked out from the molar mass of the structure shown. Where two headings read alike, the source gives them in different places.

Tests used:
[1] = system: Cryptosporidium parvum (CP); experiment: Cell culture model of Cryptosporidium parvum infection in HCT-8 cells, real-time qRT-PCR; type: cell-based; conditions: Cryptosporidium parvum; for MIC50: 44 h, CP in HCT-8 cells, 44 h infection, 50% reduction of parasite growth vs control, NA: not active, read-out: MIC50; for inhibition at 0.25 µM: HCT-8, @0.25 uM
Procedure: Fresh oocysts of CP (Iowa strain) were purchased from Bunch Grass Farm (Deary, Id.). Oocysts were further purified by a Percoll-based gradient centrifugation method and surface sterilized with 10% bleach for 7 min on ice, followed by washes with phosphate-buffered saline (PBS). An ileocecal colorectal adenocarcinoma cell line (HCT-8, ATCC #CCL-244) was used to host the growth of CP in vitro. One day before the inoculation, HCT-8 cells were seeded in 96-well plates (2.5×10^4/well) containing RPMI 1640 medium supplied with 10% fetal bovine serum (200 μL medium/well in all experiments) and allowed to grow overnight at 37° C. under 5% CO2 atmosphere until they reached ˜90% confluence. For drug testing, host cells were infected with 1.5×10^4 oocysts per well (ratio ˜1:3). After inoculation, parasite oocysts were allowed to undergo excystation and invasion into host cells for 3 h at 37° C. Free parasites and oocyst walls in the medium were removed from the plates by an exchange of the culture medium. Drugs at specified concentrations were added into the culture at this time point (immediately after the medium exchange). Parasite-infected cells were then incubated at 37° C. for additional 41 h (total 44 h infection time). At least two independent experiments were conducted for every experimental condition, each including two replicates drugs and eight replicates for negative controls.
Plates containing HCT-8 cells infected with CP for 44 h were first centrifuged for 10 min at 1000×g to ensure that free merozoites in the medium were firmly settled on the bottom of the wells. Medium was removed, followed by two gentle washes with PBS. For extracting total RNA, 200 μL of ice-cold Bio-Rad iScript qRT-PCR sample preparation reagent (lysis buffer) (Bio-Rad Laboratories, Hercules, Calif.) was added into each well. Plates were sealed with heat sealing films and subjected to vortex for 20 min. Plates were then incubated at 75° C. for 15 min, followed by centrifugation (5 min, 2000×g) to settle down cell debris. Supernatants were used immediately in subsequent qRT-PCR reactions or the plates were stored at −80° C. until use.
The levels of 18S rRNA transcripts from CP and host cells (referred to as Cp18S and Hs18S) were detected by real-time qRT-PCR method using qScrip™ one-step SYBR green qRT-PCR kit (Quanta Biosciences, Gaithersburg, Md.). Cell lysates prepared as described above were diluted by 100 and 2000 folds for detecting Cp18S and Hs18S transcripts, respectively. Reactions were performed in hard-shell 384-well skirted PCR plates (Bio-Rad Laboratories, Hercules, Calif.) (10 μL/well) containing 3 μL diluted cell lysate, 5 μL one-step SYBR green master mix, 0.2 μl RT master mix and the following primers: Cp18S-1011F and Cp18S-1185R primer pair for Cp18S rRNA, and Hs18S-1F and Hs18S-1R primer pair for Hs18S rRNA. Hs18S levels were used as controls and for normalization.
Real-time qRT-PCR reactions were performed by a Bio-Rad CFX384 Touch Real-Time PCR Detection System. The reactions started with synthesizing cDNA at 50° C. for 20 min, followed by 5 min at 95° C. to denature RNA-cDNA hybrids and deactivate reverse transcriptase, and 40 two-temperature thermal cycles of PCR amplification at 95° C., 10 sec and 58° C., 30 sec. At the end of PCR amplification, melting curve analysis was performed between 65° C. to 95° C. At least 2 technical replicates were included in qRT-PCR reactions for each sample.
The % inhibition (% inh @ (μM)) was calculated using a standard curve.

S. cerevisiae = experiment: in vitro; conditions: Saccharomyces cerevisiae
human fibroblast = experiment: in vitro

`CNC(=O)Cc1ccc(Oc2nc3cc(F)c(F)cc3s2)cc1F` [NZ-411, 2-{4-[(5,6-difluoro-1,3-benzothiazol-2-yl)oxy]-2-fluorophenyl}-N-methylacetamide] was tested, and the inhibition at 10 µM ([1]; HCT-8, read-out: % inh @ (μM)) was 75.7%, the “concentrations at which not toxic, S. cerevisiae cytotoxicity testing” value (S. cerevisiae) was ≥ 100 µM and the “concentrations at which not toxic, human fibroblast cytotoxicity testing” value (human fibroblast) was ≥ 100 µM.
For `CN(C)CCNC(=O)Cc1ccc(Oc2nc3ccc(F)cc3s2)cc1` [NZ-425, N-[2-(dimethylamino)ethyl]-2-{4-[(6-fluoro-1,3-benzothiazol-2-yl)oxy]phenyl}acetamide], the MIC50 [1] was 0.25 to 0.5 µM (≈ 0.0934 to 0.187 µg/mL), the “concentrations at which not toxic, S. cerevisiae cytotoxicity testing” value (S. cerevisiae) was ≥ 100 µM and the “concentrations at which not toxic, human fibroblast cytotoxicity testing” value (human fibroblast; human) was ≥ 100 µM.
In the case of `O=C(Cc1ccc(Oc2nc3ccc(F)cc3s2)cc1)NCCO` [NZ-426, 2-{4-[(6-fluoro-1,3-benzothiazol-2-yl)oxy]phenyl}-N-(2-hydroxyethyl)acetamide], the MIC50 [1] was 0.25 to 1 µM (≈ 0.0866 to 0.346 µg/mL), the “concentrations at which not toxic, S. cerevisiae cytotoxicity testing” value (S. cerevisiae) was ≥ 100 µM and the “concentrations at which not toxic, human fibroblast cytotoxicity testing” value (human fibroblast; human) was ≥ 100 µM.
`NCCNC(=O)Cc1ccc(Oc2nc3ccc(F)cc3s2)cc1` [NZ-427, N-(2-aminoethyl)-2-{4-[(6-fluoro-1,3-benzothiazol-2-yl)oxy]phenyl}acetamide] was tested, and the MIC50 [1] was < 0.25 µM, the inhibition at 0.25 µM [1] was 71% and the “concentrations at which not toxic, S. cerevisiae cytotoxicity testing” value (S. cerevisiae) was ≥ 100 µM. The “concentrations at which not toxic, human fibroblast cytotoxicity testing” value (human fibroblast; human) was ≥ 100 µM.
In the case of `CNC(=O)Cc1c(F)cc(Oc2nc3ccc(F)cc3s2)cc1F` [NZ-433, 2-{2,6-difluoro-4-[(6-fluoro-1,3-benzothiazol-2-yl)oxy]phenyl}-N-methylacetamide], the MIC50 [1] was ~2 µM (≈ 0.705 µg/mL), the “concentrations at which not toxic, S. cerevisiae cytotoxicity testing” value (S. cerevisiae) was ≥ 100 µM and the “concentrations at which not toxic, human fibroblast cytotoxicity testing” value (human fibroblast; human) was ≥ 100 µM.
`NC(=O)CNC(=O)Cc1ccc(Oc2nc3ccc(F)cc3s2)cc1` [NZ-438, N-(carbamoylmethyl)-2-{4-[(6-fluoro-1,3-benzothiazol-2-yl)oxy]phenyl}acetamide] was tested, and the MIC50 [1] was 0.25 to 1 µM (≈ 0.0898 to 0.359 µg/mL), the inhibition at 0.25 µM [1] was 43% and the “concentrations at which not toxic, S. cerevisiae cytotoxicity testing” value (S. cerevisiae) was ≥ 100 µM. For the same compound, the “concentrations at which not toxic, human fibroblast cytotoxicity testing” value (human fibroblast; human) was ≥ 100 µM.
In the case of `O=C(O)Cc1ccc(Oc2nc3cc(F)c(F)cc3s2)cc1F` [NZ-440, 2-{4-[(5,6-difluoro-1,3-benzothiazol-2-yl)oxy]-2-fluorophenyl}acetic acid], the MIC50 [1] was ~10 µM (≈ 3.39 µg/mL), the inhibition at 10 µM ([1]; HCT-8, @10 uM, read-out: % inh @) was 53% and the “concentrations at which not toxic, S. cerevisiae cytotoxicity testing” value (S. cerevisiae) was ≥ 100 µM. The “concentrations at which not toxic, human fibroblast cytotoxicity testing” value (human fibroblast; human) was ≥ 100 µM.
With `O=C(Cc1ccc(Oc2nc3ccc(F)cc3s2)cc1F)NC1CC1` [NZ-446, N-cyclopropyl-2-{2-fluoro-4-[(6-fluoro-1,3-benzothiazol-2-yl)oxy]phenyl}acetamide] the MIC50 [1] was 1 to 4 µM (≈ 0.36 to 1.44 µg/mL), the “concentrations at which not toxic, S. cerevisiae cytotoxicity testing” value (S. cerevisiae) was ≥ 100 µM and the “concentrations at which not toxic, human fibroblast cytotoxicity testing” value (human fibroblast; human) was ≥ 100 µM.
With `CNC(=O)Cc1c(F)cc(Oc2nc3cc(F)c(F)cc3s2)cc1F` [NZ-450, 2-{4-[(5,6-difluoro-1,3-benzothiazol-2-yl)oxy]-2,6-difluorophenyl}-N-methylacetamide] the MIC50 [1] was ~2 µM (≈ 0.741 µg/mL), the “concentrations at which not toxic, S. cerevisiae cytotoxicity testing” value (S. cerevisiae) was ≥ 100 µM and the “concentrations at which not toxic, human fibroblast cytotoxicity testing” value (human fibroblast; human) was ≥ 100 µM.
For `CNC(=O)Cc1c(F)cc(Oc2nc3ccc(Cl)cc3s2)cc1F` [NZ-459, 2-{4-[(6-chloro-1,3-benzothiazol-2-yl)oxy]-2,6-difluorophenyl}-N-methylacetamide], the MIC50 [1] was 1 µM (≈ 0.369 µg/mL), the “concentrations at which not toxic, S. cerevisiae cytotoxicity testing” value (S. cerevisiae) was ≥ 100 µM and the “concentrations at which not toxic, human fibroblast cytotoxicity testing” value (human fibroblast; human) was ≥ 100 µM.
With `CNC(=O)Cc1c(F)cc(Oc2cnc3cc(Cl)ccc3n2)cc1F` [NZ-460, 2-{4-[(6-chloroquinoxalin-2-yl)oxy]-2,6-difluorophenyl}-N-methylacetamide] the inhibition at 5 µM ([1]; HCT-8, @5 uM) was 19%, the “concentrations at which not toxic, S. cerevisiae cytotoxicity testing” value (S. cerevisiae) was ≥ 100 µM and the “concentrations at which not toxic, human fibroblast cytotoxicity testing” value (human fibroblast; human) was ≥ 100 µM.
For `CN1CCN(C(=O)Cc2ccc(Oc3nc4ccc(Cl)cc4s3)cc2)CC1` [NZ-464, 2-{4-[(6-chloro-1,3-benzothiazol-2-yl)oxy]phenyl}-1-(4-methylpiperazin-1-yl)ethan-1-one], the MIC50 [1] was 0.05 to 0.27 µM (≈ 0.0201 to 0.109 µg/mL), the “concentrations at which not toxic, S. cerevisiae cytotoxicity testing” value (S. cerevisiae) was ≥ 100 µM and the “concentrations at which not toxic, human fibroblast cytotoxicity testing” value (human fibroblast; human) was ≥ 100 µM.
For `CC(C(=O)N1CCN(C)CC1)c1ccc(Oc2nc3cc(F)c(F)cc3s2)cc1` (centres unmarked) [NZ-465, 2-{4-[(5,6-difluoro-1,3-benzothiazol-2-yl)oxy]phenyl}-1-(4-methylpiperazin-1-yl)propan-1-one], the MIC50 [1] was < 0.25 µM, the inhibition at 0.25 µM [1] was 68% and the “concentrations at which not toxic, S. cerevisiae cytotoxicity testing” value (S. cerevisiae) was ≥ 100 µM. The “concentrations at which not toxic, human fibroblast cytotoxicity testing” value (human fibroblast; human) was ≥ 100 µM.
`CC(C(=O)N1CCN(C)CC1)c1ccc(Oc2nc3ccc(F)cc3s2)cc1` (centres unmarked) [NZ-466, 2-{4-[(6-fluoro-1,3-benzothiazol-2-yl)oxy]phenyl}-1-(4-methylpiperazin-1-yl)propan-1-one] was tested, and the MIC50 [1] was 0.05 to 0.1 µM (≈ 0.02 to 0.0399 µg/mL), the “concentrations at which not toxic, S. cerevisiae cytotoxicity testing” value (S. cerevisiae) was ≥ 100 µM and the “concentrations at which not toxic, human fibroblast cytotoxicity testing” value (human fibroblast; human) was ≥ 100 µM.
`CN1CCN(C(=O)Cc2ccc(Oc3nc4ccc(F)cc4s3)cc2F)CC1` [NZ-467, 2-{2-fluoro-4-[(6-fluoro-1,3-benzothiazol-2-yl)oxy]phenyl}-1-(4-methylpiperazin-1-yl)ethan-1-one] was tested, and the MIC50 [1] was 0.25 to 1 µM (≈ 0.101 to 0.403 µg/mL), the “concentrations at which not toxic, S. cerevisiae cytotoxicity testing” value (S. cerevisiae) was ≥ 100 µM and the “concentrations at which not toxic, human fibroblast cytotoxicity testing” value (human fibroblast; human) was ≥ 100 µM.
`O=C(Cc1ccc(Oc2nc3ccc(F)cc3s2)cc1)N1CCCCC1` [NZ-471, 2-{4-[(6-fluoro-1,3-benzothiazol-2-yl)oxy]phenyl}-1-(piperidin-1-yl)ethan-1-one] was tested, and the MIC50 [1] was 1 to 4 µM (≈ 0.37 to 1.48 µg/mL), the inhibition at 4 µM ([1]; HCT-8, @4 uM, read-out: % inh @) was 89% and the “concentrations at which not toxic, S. cerevisiae cytotoxicity testing” value (S. cerevisiae) was ≥ 100 µM. For the same compound, the “concentrations at which not toxic, human fibroblast cytotoxicity testing” value (human fibroblast; human) was ≥ 100 µM.
In the case of `O=C(Cc1ccc(Oc2nc3ccc(F)cc3s2)cc1)N1CCNCC1` [NZ-472, 2-{4-[(6-fluoro-1,3-benzothiazol-2-yl)oxy]phenyl}-1-(piperazin-1-yl)ethan-1-one], the MIC50 [1] was ~1 µM (≈ 0.371 µg/mL), the “concentrations at which not toxic, S. cerevisiae cytotoxicity testing” value (S. cerevisiae) was ≥ 100 µM and the “concentrations at which not toxic, human fibroblast cytotoxicity testing” value (human fibroblast; human) was ≥ 100 µM.
With `CN1CCN(C(=O)Cc2ccc(Oc3nc4ccc(F)cc4s3)cc2)CC1` [NZ-476, 2-{4-[(6-fluoro-1,3-benzothiazol-2-yl)oxy]phenyl}-1-(4-methylpiperazin-1-yl)ethan-1-one] the MIC50 [1] was 0.5 to 1 µM (≈ 0.193 to 0.385 µg/mL), the “concentrations at which not toxic, S. cerevisiae cytotoxicity testing” value (S. cerevisiae) was ≥ 100 µM and the “concentrations at which not toxic, human fibroblast cytotoxicity testing” value (human fibroblast; human) was ≥ 100 µM.
With `CC(C(=O)N1CCNCC1)c1ccc(Oc2nc3ccc(F)cc3s2)cc1` (centres unmarked) [NZ-477, 2-{4-[(6-fluoro-1,3-benzothiazol-2-yl)oxy]phenyl}-1-(piperazin-1-yl)propan-1-one] the MIC50 [1] was 0.05 to 0.17 µM (≈ 0.0193 to 0.0655 µg/mL), the “concentrations at which not toxic, S. cerevisiae cytotoxicity testing” value (S. cerevisiae) was ≥ 100 µM and the “concentrations at which not toxic, human fibroblast cytotoxicity testing” value (human fibroblast; human) was ≥ 100 µM.
In the case of `O=C(Cc1ccc(Oc2nc3ccc(Cl)cc3s2)cc1)N1CCNCC1` [NZ-479, 2-{4-[(6-chloro-1,3-benzothiazol-2-yl)oxy]phenyl}-1-(piperazin-1-yl)ethan-1-one], the MIC50 [1] was 0.5 to 1 µM (≈ 0.194 to 0.388 µg/mL), the “concentrations at which not toxic, S. cerevisiae cytotoxicity testing” value (S. cerevisiae) was ≥ 100 µM and the “concentrations at which not toxic, human fibroblast cytotoxicity testing” value (human fibroblast; human) was ≥ 100 µM.
For `O=C(Cc1ccc(Oc2nc3cc(F)c(F)cc3s2)cc1)N1CCCCC1` [NZ-481, 2-{4-[(5,6-difluoro-1,3-benzothiazol-2-yl)oxy]phenyl}-1-(piperidin-1-yl)ethan-1-one], the MIC50 [1] was 1 to 4 µM (≈ 0.388 to 1.55 µg/mL), the “concentrations at which not toxic, S. cerevisiae cytotoxicity testing” value (S. cerevisiae) was ≥ 100 µM and the “concentrations at which not toxic, human fibroblast cytotoxicity testing” value (human fibroblast; human) was ≥ 100 µM.
